Biological target: GST tagged truncated human mutant G2019S LRRK2 (Homo sapiens (Human), UniProt Q5S007, G2019S)
Experiment: LRRK2 Km ATP LanthaScreen Assay
Type: biochemical
Details: 134 μM ATP (Km ATP), LRRKtide substrate, negative log of mean IC50 (molar)
Outline: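 Truncated GST-tagged G2019S LRRK2 (1.25 nM enzyme solution) was preincubated with compound for 15 min at rt, then reacted for 90 min with fluorescein-LRRKtide and 134 μM ATP (Km) in Tris pH 8.5/MgCl2 buffer. After an EDTA stop, TR-FRET used a Tb anti-pERM antibody (520/495 nm ratio). IC50 came from a 4-parameter fit and is reported as pIC50, mean of several runs.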

GST tagged truncated human mutant G2019S LRRK2, sequence (Q5S007 970-2527 G2019S): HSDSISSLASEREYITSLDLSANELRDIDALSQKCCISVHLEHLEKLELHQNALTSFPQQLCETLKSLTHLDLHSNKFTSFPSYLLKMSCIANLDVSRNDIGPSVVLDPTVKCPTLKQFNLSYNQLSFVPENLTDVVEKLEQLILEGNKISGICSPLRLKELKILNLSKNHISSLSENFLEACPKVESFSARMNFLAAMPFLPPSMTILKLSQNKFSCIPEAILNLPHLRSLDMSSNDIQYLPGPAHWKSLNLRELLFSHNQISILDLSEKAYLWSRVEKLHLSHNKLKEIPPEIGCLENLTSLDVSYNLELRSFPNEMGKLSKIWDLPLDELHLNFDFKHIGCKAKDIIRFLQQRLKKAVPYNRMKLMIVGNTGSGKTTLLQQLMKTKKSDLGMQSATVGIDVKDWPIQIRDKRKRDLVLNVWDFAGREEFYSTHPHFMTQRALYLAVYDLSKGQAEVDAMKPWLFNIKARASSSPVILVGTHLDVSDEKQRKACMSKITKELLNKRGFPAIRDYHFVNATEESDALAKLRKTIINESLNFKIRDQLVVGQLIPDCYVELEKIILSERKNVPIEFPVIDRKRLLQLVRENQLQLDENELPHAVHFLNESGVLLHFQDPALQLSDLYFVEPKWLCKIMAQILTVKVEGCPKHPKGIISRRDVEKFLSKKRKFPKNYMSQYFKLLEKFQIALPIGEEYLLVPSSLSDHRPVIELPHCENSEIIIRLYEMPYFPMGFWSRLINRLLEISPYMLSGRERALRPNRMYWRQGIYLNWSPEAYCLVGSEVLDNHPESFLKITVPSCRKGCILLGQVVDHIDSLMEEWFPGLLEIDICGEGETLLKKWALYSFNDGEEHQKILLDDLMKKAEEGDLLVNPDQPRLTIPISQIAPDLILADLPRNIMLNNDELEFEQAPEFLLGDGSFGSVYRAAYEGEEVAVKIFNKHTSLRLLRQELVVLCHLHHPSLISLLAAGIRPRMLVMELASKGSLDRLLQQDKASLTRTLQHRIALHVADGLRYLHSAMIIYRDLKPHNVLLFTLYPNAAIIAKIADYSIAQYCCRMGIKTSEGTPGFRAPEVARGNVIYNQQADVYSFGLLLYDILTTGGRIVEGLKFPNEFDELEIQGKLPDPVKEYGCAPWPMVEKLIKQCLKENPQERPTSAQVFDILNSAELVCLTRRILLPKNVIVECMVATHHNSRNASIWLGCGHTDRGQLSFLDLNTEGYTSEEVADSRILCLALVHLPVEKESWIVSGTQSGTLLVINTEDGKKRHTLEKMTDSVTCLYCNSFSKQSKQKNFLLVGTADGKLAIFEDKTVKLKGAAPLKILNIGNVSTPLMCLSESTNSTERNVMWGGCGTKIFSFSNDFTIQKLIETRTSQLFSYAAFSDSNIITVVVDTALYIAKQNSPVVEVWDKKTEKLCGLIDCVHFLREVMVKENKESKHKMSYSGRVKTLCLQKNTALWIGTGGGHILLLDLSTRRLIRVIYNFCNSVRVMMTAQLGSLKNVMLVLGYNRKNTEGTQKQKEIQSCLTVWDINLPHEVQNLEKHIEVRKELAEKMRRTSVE

Row | Structure (SMILES) | LRRK2 pIC50
1 | O=C(Nc1cn(CC2CC2(F)F)nc1C(F)F)c1csc(-c2cn[nH]c2)n1 (stereo not shown) [Example 7-29, N-{1-[(2,2-difluorocyclopropyl)methyl]-3-(difluoromethyl)-1H-pyrazol-4-yl}-2-(1H-pyrazol-4-yl)-1,3-thiazole-4-carboxamide] | 7.78
2 | O=C(Nc1cnn(C[C@@H]2CCNC2)c1)c1csc(-c2cn[nH]c2)n1 [Example 7-30, 2-(1H-pyrazol-4-yl)-N-(1-{[(3R)-pyrrolidin-3-yl]methyl}-1H-pyrazol-4-yl)-1,3-thiazole-4-carboxamide] | 6.25
3 | CC(C#N)n1cc(NC(=O)c2csc(-c3cn[nH]c3)n2)c(C(F)F)n1 (stereo not shown) [Example 7-31, N-[1-(1-cyanoethyl)-3-(difluoromethyl)-1H-pyrazol-4-yl]-2-(1H-pyrazol-4-yl)-1,3-thiazole-4-carboxamide] | 7.40
4 | O=C(Nc1cnn(CCC2CCNCC2)c1)c1csc(-c2cn[nH]c2)n1 [Example 7-32, N-{1-[2-(piperidin-4-yl)ethyl]-1H-pyrazol-4-yl}-2-(1H-pyrazol-4-yl)-1,3-thiazole-4-carboxamide] | 7.38
5 | O=C(Nc1cn(CC2CC2)nc1C(F)F)c1csc(-c2cn[nH]c2)n1 [Example 7-33, N-[1-(cyclopropylmethyl)-3-(difluoromethyl)-1H-pyrazol-4-yl]-2-(1H-pyrazol-4-yl)-1,3-thiazole-4-carboxamide] | 8.13
6 | CN1CCN(CCCn2cc(NC(=O)c3csc(-c4cn[nH]c4)n3)cn2)CC1 [Example 7-34, N-{1-[3-(4-methylpiperazin-1-yl)propyl]-1H-pyrazol-4-yl}-2-(1H-pyrazol-4-yl)-1,3-thiazole-4-carboxamide] | 5.95
7 | N[C@H]1CC[C@](F)(Cn2cc(NC(=O)c3csc(-c4cn[nH]c4)n3)cn2)CC1 [Example 7-35, N-{1-[(cis-4-amino-1-fluorocyclohexyl)methyl]-1H-pyrazol-4-yl}-2-(1H-pyrazol-4-yl)-1,3-thiazole-4-carboxamide] | 6.24
8 | NCC1CCC(F)(Cn2cc(NC(=O)c3csc(-c4cn[nH]c4)n3)cn2)CC1 (stereo not shown) [Example 7-36, N-(1-{[4-(aminomethyl)-1-fluorocyclohexyl]methyl}-1H-pyrazol-4-yl)-2-(1H-pyrazol-4-yl)-1,3-thiazole-4-carboxamide] | 7.65
9 | N#CC1CCC(Cn2cc(NC(=O)c3csc(-c4cn[nH]c4)n3)cn2)CC1 (stereo not shown) [Example 7-37, N-{1-[(4-cyanocyclohexyl)methyl]-1H-pyrazol-4-yl}-2-(1H-pyrazol-4-yl)-1,3-thiazole-4-carboxamide] | 7.72
10 | O=C(Nc1cnn(CC2CC2)c1)c1csc(-c2cn[nH]c2)n1 [Example 7-38, N-[1-(cyclopropylmethyl)-1H-pyrazol-4-yl]-2-(1H-pyrazol-4-yl)-1,3-thiazole-4-carboxamide] | 8.02
11 | COc1nn(CC2CC2(F)F)cc1NC(=O)c1csc(-c2cn[nH]c2)n1 (stereo not shown) [Example 7-39, N-{1-[(2,2-difluorocyclopropyl)methyl]-3-methoxy-1H-pyrazol-4-yl}-2-(1H-pyrazol-4-yl)-1,3-thiazole-4-carboxamide] | 7.74
12 | CCOCCn1cc(NC(=O)c2csc(-c3cn[nH]c3)n2)c(C(F)F)n1 [Example 7-40, N-[3-(difluoromethyl)-1-(2-ethoxyethyl)-1H-pyrazol-4-yl]-2-(1H-pyrazol-4-yl)-1,3-thiazole-4-carboxamide] | 6.97
13 | CC(C)Cn1cc(NC(=O)c2csc(-c3cn[nH]c3)n2)cn1 [Example 7-41, N-[1-(2-methylpropyl)-1H-pyrazol-4-yl]-2-(1H-pyrazol-4-yl)-1,3-thiazole-4-carboxamide] | 7.46
14 | CC1(Cn2cc(NC(=O)c3csc(-c4cn[nH]c4)n3)c(C(F)F)n2)COC1 [Example 7-42, N-{3-(difluoromethyl)-1-[(3-methyloxetan-3-yl)methyl]-1H-pyrazol-4-yl}-2-(1H-pyrazol-4-yl)-1,3-thiazole-4-carboxamide] | 6.51
15 | O=C(Nc1cnn(CC2C3CCC2CNC3)c1)c1csc(-c2cn[nH]c2)n1 (stereo not shown) [Example 7-43, N-{1-[(3-azabicyclo[3.2.1]octan-8-yl)methyl]-1H-pyrazol-4-yl}-2-(1H-pyrazol-4-yl)-1,3-thiazole-4-carboxamide] | 6.87
16 | Cc1cc(-n2cc(NC(=O)c3csc(-c4cn[nH]c4)n3)cn2)ccn1 [Example 8-1, N-(1-(2-Methylpyridin-4-yl)-1H-pyrazol-4-yl)-2-(1H-pyrazol-4-yl)thiazole-4-carboxamide] | 7.90
17 | Cc1cnccc1-n1cc(NC(=O)c2csc(-c3cn[nH]c3)n2)cn1 [Example 8-2, N-[1-(3-methylpyridin-4-yl)-1H-pyrazol-4-yl]-2-(1H-pyrazol-4-yl)-1,3-thiazole-4-carboxamide] | 7.74
18 | CC(C)c1cc(-n2cc(NC(=O)c3csc(-c4cn[nH]c4)n3)cn2)ccn1 [Example 8-3, N-{1-[2-(1-methylethyl)pyridin-4-yl]-1H-pyrazol-4-yl}-2-(1H-pyrazol-4-yl)-1,3-thiazole-4-carboxamide] | 7.89
19 | Cc1cc(-n2cc(NC(=O)c3csc(-c4cn[nH]c4)n3)cn2)cc(C)n1 [Example 8-4, N-[1-(2,6-dimethylpyridin-4-yl)-1H-pyrazol-4-yl]-2-(1H-pyrazol-4-yl)-1,3-thiazole-4-carboxamide] | 7.82
20 | Cn1cc(-c2cccc(C(=O)Nc3cnn(C4CCC4)c3)n2)cn1 [Example 9-1, N-(1-Cyclobutyl-1H-pyrazol-4-yl)-6-(1-methyl-1H-pyrazol-4-yl)picolinamide] | 7.27
21 | O=C(Nc1cnn(CC2CCC2)c1)c1cccc(-c2cncnc2)n1 [Example 9-2, N-[1-(cyclobutylmethyl)-1H-pyrazol-4-yl]-6-pyrimidin-5-ylpyridine-2-carboxamide] | 5.74
22 | O=C(Nc1cnn(C2CCC2)c1)c1csc(-c2cnn3c2CCC3)n1 [Example 9-3, N-(1-cyclobutyl-1H-pyrazol-4-yl)-2-(5,6-dihydro-4H-pyrrolo[1,2-b]pyrazol-3-yl)-1,3-thiazole-4-carboxamide] | 8.01
23 | CCn1cc(-c2nc(C(=O)Nc3cnn(C4CCC4)c3)cs2)cn1 [Example 9-4, N-(1-cyclobutyl-1H-pyrazol-4-yl)-2-(1-ethyl-1H-pyrazol-4-yl)-1,3-thiazole-4-carboxamide] | 7.41
24 | O=C(Nc1cnn(CC2CCC2)c1)c1cccc(-c2ccoc2)n1 [Example 9-5, N-[1-(cyclobutylmethyl)-1H-pyrazol-4-yl]-6-furan-3-ylpyridine-2-carboxamide] | 5.79
25 | O=C(Nc1cnn(CC2CCC2)c1)c1cccc(-c2cnn(Cc3ccncc3)c2)n1 [Example 9-6, N-[1-(cyclobutylmethyl)-1H-pyrazol-4-yl]-6-[1-(pyridin-4-ylmethyl)-1H-pyrazol-4-yl]pyridine-2-carboxamide] | 6.18
